Literature values, collected in US20110271957A1, “Delivery of estrogen and bioequivalents thereof via the pulmonary tract” (BATTELLE MEMORIAL INSTITUTE, priority 2010, published 2011).

Settings: intranasal delivery route

bioavailability of administered estradiol: about 25%
Structure (SMILES): C[C@]12CC[C@@H]3c4ccc(O)cc4CC[C@H]3[C@@H]1CC[C@@H]2O [estradiol, 17β-estradiol]
